Test results published in ChEMBL document CHEMBL1149545, “Thyroid receptor ligands. Part 8: Thyromimetics derived from N-acylated-alpha-amino acid derivatives displaying modulated pharmacological selectivity compared with KB-141” (Bioorg Med Chem Lett, 2007).

What was measured:
CHO-K1 [1] = conditions: Homo sapiens
Description: (§1) Activity against TRAFbeta expressed in CHOK1 cells by alkaline phosphatse reporter gene assay

cells [2] = conditions: Homo sapiens, CHO-K1
Description: (§2) Activity against TRAF-alpha-1 expressed in CHOK1 cells by alkaline phosphatase reporter gene assay

[3] = biological target: T1, Thyroid hormone receptor beta (Homo sapiens, UniProt P10828); experiment: biochemical
T1 sequence (P10828 whole entry): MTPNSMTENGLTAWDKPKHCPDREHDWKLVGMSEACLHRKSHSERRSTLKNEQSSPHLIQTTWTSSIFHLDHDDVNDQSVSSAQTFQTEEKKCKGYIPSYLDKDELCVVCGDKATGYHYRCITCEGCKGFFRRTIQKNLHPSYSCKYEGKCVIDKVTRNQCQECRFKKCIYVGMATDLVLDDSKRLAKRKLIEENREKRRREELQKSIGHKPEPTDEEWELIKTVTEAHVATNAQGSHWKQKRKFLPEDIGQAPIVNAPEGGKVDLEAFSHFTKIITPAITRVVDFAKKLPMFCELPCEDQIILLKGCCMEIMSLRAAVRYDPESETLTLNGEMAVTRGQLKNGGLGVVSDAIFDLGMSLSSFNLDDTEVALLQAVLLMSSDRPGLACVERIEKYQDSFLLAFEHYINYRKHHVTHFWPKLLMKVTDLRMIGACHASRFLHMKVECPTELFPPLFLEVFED
Description: Binding affinity at human thyroid hormone receptor beta-1 expressed in CHOK1 cells

cells [4] = conditions: Homo sapiens, CHO-K1; remark: listed apart in the source
Description: as §1

[5] = biological target: T2, Thyroid hormone receptor alpha (Homo sapiens, UniProt P10827); experiment: biochemical
T2 sequence (P10827 whole entry): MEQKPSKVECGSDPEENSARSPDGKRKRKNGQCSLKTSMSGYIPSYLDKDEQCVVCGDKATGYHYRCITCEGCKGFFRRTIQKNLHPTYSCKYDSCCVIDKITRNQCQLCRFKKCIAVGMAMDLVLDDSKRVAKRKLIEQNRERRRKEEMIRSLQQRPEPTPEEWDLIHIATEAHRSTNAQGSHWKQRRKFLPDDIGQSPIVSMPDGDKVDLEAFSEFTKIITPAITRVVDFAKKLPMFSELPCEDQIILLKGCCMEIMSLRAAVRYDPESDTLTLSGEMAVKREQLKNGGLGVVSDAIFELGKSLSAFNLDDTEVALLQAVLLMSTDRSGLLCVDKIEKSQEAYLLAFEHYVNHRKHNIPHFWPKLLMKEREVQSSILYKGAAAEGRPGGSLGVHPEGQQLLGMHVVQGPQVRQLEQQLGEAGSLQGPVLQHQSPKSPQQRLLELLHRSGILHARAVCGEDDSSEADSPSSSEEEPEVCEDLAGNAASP
Description: Binding affinity at human thyroid hormone receptor alpha 1 expressed in CHOK1 cells

CHO-K1 [6] = conditions: Homo sapiens; remark: listed apart in the source
Description: as §2

Homo sapiens = species on record: Homo sapiens; experiment: Selectivity ratio of IC50 for thyroid hormone receptor alpha-1 to IC50 for thyroid hormone receptor beta-1
Rattus norvegicus [7] = experiment: Increase in heart rate in po dosed cholesterol-fed rat; type: functional
Rattus norvegicus [8] = experiment: Decrease in TSH in po dosed cholesterol-fed rat; type: functional
Rattus norvegicus [9] = experiment: Decrease in cholesterol in po dosed cholesterol-fed rat; type: functional
Rattus norvegicus [10] = species on record: Rattus norvegicus; experiment: Ratio of ED15 for heart rate in cholesterol-fed rat to ED50 for cholesterol level in cholesterol-fed rat; type: functional
Rattus norvegicus [11] = species on record: Rattus norvegicus; experiment: Ratio of ED30 for TSH in cholesterol-fed rat to ED50 for cholesterol level in cholesterol-fed rat; type: functional

Row | Structure (SMILES) | EC50 (cells [2]) | IC50 [3] | EC50 (cells [4]) | IC50 [5] | Ratio IC50 (Homo sapiens) | Activity (CHO-K1 [1]) | Activity (CHO-K1 [6]) | ED15 (Rattus norvegicus [7]) | ED30 (Rattus norvegicus [8]) | ED50 (Rattus norvegicus [9]) | Ratio (Rattus norvegicus [10]) | Ratio (Rattus norvegicus [11])
1 | CC(C)c1cc(Oc2c(Br)cc(CC(=O)N[C@@H](CC(=O)O)C(=O)O)cc2Br)ccc1O | 1.5 µM | 0.29 µM | 1.3 µM | 0.46 µM | 0.9 | 84% | 72% |  |  |  |  | 
2 | N[C@@H](Cc1cc(I)c(Oc2ccc(O)c(I)c2)c(I)c1)C(=O)O [LIOTHYRONINE] |  |  |  |  |  |  |  | 31 nmol/kg/day | 6.7 nmol/kg/day | 21 nmol/kg/day |  | 
3 | CC(C)c1cc(Oc2c(Br)cc(CC(=O)NCC(=O)O)cc2Br)ccc1O | 0.103 µM | 0.0027 µM | 0.042 µM | 0.026 µM | 5.9 | 85% | 75% |  |  |  |  | 
4 | CC(C)c1cc(Oc2c(Br)cc(CC(=O)N[C@@H](C(=O)O)c3ccccc3)cc2Br)ccc1O | 0.0015 µM | 0.0006 µM | 0.00073 µM | 0.0055 µM | 6 | 85% | 65% |  |  |  |  | 
5 | CC(C)c1cc(Oc2c(Cl)cc(CC(=O)O)cc2Cl)ccc1O |  |  |  |  |  |  |  | 2900 nmol/kg/day | 32 nmol/kg/day | 72 nmol/kg/day |  | 
6 | CC(C)c1cc(Oc2c(Br)cc(CC(=O)N[C@H](CC(=O)O)C(=O)O)cc2Br)ccc1O | 0.066 µM | 0.026 µM | 0.038 µM | 0.168 µM | 3.8 | 88% | 74% |  |  |  |  | 
7 | CC(C)c1cc(Oc2c(Br)cc(CC(=O)N[C@H](C(=O)O)C(C)C)cc2Br)cc(Cl)c1O | 0.065 µM | 1.4 µM | 0.21 µM | 0.67 µM | 0.29 | 31% | 21% |  |  |  |  | 
8 | CC(C)c1cc(Oc2c(Br)cc(CC(=O)N[C@H](C(=O)O)c3ccccc3)cc2Br)ccc1O |  | 0.00078 µM |  | 0.0075 µM | 5.7 |  |  |  |  |  |  | 
9 | Cc1cc(Oc2c(Br)cc(CC(=O)N[C@H](C(=O)O)C(C)C)cc2Br)cc(C(C)C)c1O | 0.17 µM | 2.6 µM | 1.1 µM | 1.5 µM | 0.34 | 27% | 13% |  |  |  |  | 

The next lines start with results.

Row | EC50 (cells [2]) | IC50 [3] | EC50 (cells [4]) | IC50 [5] | Ratio IC50 (Homo sapiens) | Structure (SMILES) | Activity (CHO-K1 [1]) | Activity (CHO-K1 [6]) | ED15 (Rattus norvegicus [7]) | ED30 (Rattus norvegicus [8]) | ED50 (Rattus norvegicus [9]) | Ratio (Rattus norvegicus [10]) | Ratio (Rattus norvegicus [11])
10 | 0.017 µM | 0.012 µM | 0.011 µM | 0.088 µM | 4.3 | CC(C)c1cc(Oc2c(Br)cc(CC(=O)N[C@H](C(=O)O)C(C)C)cc2Br)cc(F)c1O | 88% | 78% |  |  |  |  | 
11 | 0.0023 µM | 0.00071 µM | 0.0012 µM | 0.0098 µM | 8.2 | CC(C)c1cc(Oc2c(Br)cc(CC(=O)N[C@@H](C(=O)O)C(C)C)cc2Br)ccc1O | 100% | 88% |  |  |  |  | 
12 | 0.0072 µM | 0.0013 µM | 0.0026 µM | 0.01 µM | 4.5 | CC(C)c1cc(Oc2c(Br)cc(CC(=O)N[C@@H](C)C(=O)O)cc2Br)ccc1O | 92% | 81% |  |  |  |  | 
13 | 0.0014 µM | 0.00027 µM | 0.00077 µM | 0.0043 µM | 9.4 | CC(C)c1cc(Oc2c(Br)cc(CC(=O)N[C@H](C(=O)O)C(C)C)cc2Br)ccc1O | 92% | 78% | 1580 nmol/kg/day | 242 nmol/kg/day | 82 nmol/kg/day | 19 | 3
14 | 0.015 µM | 0.0059 µM | 0.0076 µM | 0.083 µM | 8.3 | CC(C)c1cc(Oc2c(Br)cc(CC(=O)N[C@H](C)C(=O)O)cc2Br)ccc1O | 100% | 83% |  |  |  |  | 
